Measured values as given in US7622498B2, “Sugar derivatives comprising oxiranes or α, β-unsaturated δ-lactones, process for their preparation and their utilisation as pesticides” (Instituto Politecnico de Santarem/Escoal Superior Agraria, priority 2004, dated 2009).
In brackets after ≈: the same amount, converted by molar mass. Entries after “also recorded” stand apart in the source; their conditions may differ.

What was measured:
[1] = test system: brine shrimp A. salina larvae; assay: Method F: immersion bioassay of brine shrimp larvae in brine; format: in vivo; conditions: brine shrimp larvae immersed in brine, 24 hour mortalities
Description: (§1) Immersion Bioassay of Brine Shrimp A. salina Larvae in Brine
(§2) Freshly hatched brine shrimps were prepared by adding aquarium brine shrimp eggs to salt water (15 g sea salt per litre water). The following day hatchlings were separated from eggs and empty egg cases, using their phototropic movement and a Pasteur pipette.
(§3) Into each of a set of small glass vials was pipetted 195 μL of brine containing 5 shrimp larvae, using a micropipette. The solution of the test compound in 5 μL acetone was added, the vial closed and kept at 30±1° C. for observation.
(§4) Dead and alive shrimps were counted, at 1 and 24 hours after treatment, using a microscope. Six concentrations and a control were used with 10 shrimps treated.
(§5) A blank test was performed for comparison of the results.
(§6) Dosages used in insect treatments were based upon the amount of compound applied to each insect. For the shrimps the final concentrations of the compounds in the immersion brine were used.
(§7) The 24 hour mortalities were used to calculate the LD50/LC50 using regression analysis of the probability percent mortality (probit) against log dose/concentration.^30 This was calculated using PoloPC software (LeOra Software, Berkeley, Calif., 1994).

[2] = test system: glasshouse white fly (T. vaporariorum); assay: Method G: foliar treatment of glasshouse white fly on tomato leaves; format: in vivo, Trialeurodes vaporariorum; conditions: for % Control of White Fly: sprayed on infested tomato leaves, 14 hours; for insecticidal efficacy against adult white fly (in words): spraying infested tomato leaves
Description: Method G Foliar Treatment of Glasshouse White Fly (T. vaporariorum) Seedlings of tomato plants were infested with adult white fly. Selected leaves of the tomato plants were excised and carefully trimmed to 3 leaflets without disturbing the infestation. These were placed in glass tubes containing water and the leaflets were then sprayed on both sides with a small sprayer delivering for each one 200 μL of a solution of the test compound dissolved in 30% acetone in water. Controls were sprayed with the solvent alone. Counts of insects on the individual leaflets were made immediately after spraying and then at 14 hours following. Where single dose treatments were used (in the case of whitefly assays), no statistics are available and the results are expressed as percent effect. Five compounds were tested, which were applied spraying 600 μL of each compound solution (prepared according to method G) on of leaves of tomato plants infested with a known number of adult whitefly. After 14 hours, the number of dead insects (or eventually of insects that disappeared) was counted. These assays were performed at room temperature, between 20 and 25° C.

[3] = test system: adult fruit fly (D. melanogaster); assay: Method A: topical treatment of adult fruit fly; format: in vivo, Drosophila melanogaster; conditions: for LD50: Method A, topical 0.2 μL acetone solution, adult fruit flies, 24 hour mortalities, probit regression; for activity against adult fruit flies (in words): topical treatment, from LD50 values
Description: Topical Treatment of Adult Fruit Fly (D. melanogaster)
A culture of fruit flies (D. melanogaster) was used in the production of adult flies (approx 0.22 mg) of about seven days.
Serial dilutions of the compounds were prepared in acetone, and volumes of approximately 0.2 μL were applied to the ventral surface of each insect, using a calibrated PAX 100 microapplicator and a 1 mL syringe.
The fruit flies, in groups of 5, were anaesthetised using carbon dioxide. Prior to recovery the flies were placed in a containing vial and kept at 30±1° C., for observations of mortality at 1, 2, 3 and 24 hours after treatment.
For this purpose solutions of 6 different concentrations and a control were employed in groups of 12 and 20 insects. Control mortalities were normally zero but occasionally rose to 5-10%.
as §6, §7
In the table are also given the confidence intervals at 95% for the LD50 values, the number of organisms tested, the slope obtained by linear regression and the index g (of significance). Data are considered satisfactory if g is substantially less than 1 and seldom greater than 0.4.^31
As regards the confidence intervals for LD50, the indication (90%) means that the intervals were calculated at 90% and not at 95%.

[4] = test system: fruit fly larvae; assay: Method D: topical treatment of fruit fly larvae; format: in vivo, Drosophila melanogaster; conditions: for LD50: Method D, topical 0.2 μL acetone solution, second and third instar fruit fly larvae; for toxicity to fruit fly larvae compared with adult flies (in words): topical treatment of larvae, from LD50 values
Description: Topical Treatment of Fruit Fly Larvae
Fruit fly larvae were separated from the growing medium and second and third instars were topically treated with 0.2 μL acetone solutions of the compounds using a PAX microapplicator.
Larvae were held in padded forceps for dosing and then placed on moistened filter paper, at 30±1° C., for observation.
as §6, §7

[5] = test system: adult fruit flies; assay: Method B: second method for topical treatment of adult fruit flies; format: in vivo, Drosophila melanogaster; conditions: topical 1 μL acetone solution, 24 hour mortalities
Description: Second Method for Topical Treatment of Adult Fruit Flies
Different dilutions of the compounds in acetone were prepared and applied to individual fruit flies using a Gilson piston micropipette.
Individual flies were held in padded forceps and 1 μL of acetone solution was applied. The acetone was allowed to evaporate before placing the fly into the vial for observation, kept at 30±1° C., following the standard methodology.
as §6, §7

[6] = test system: house fly adults (M. domestica); assay: Method E: topical treatment of house fly adults; format: in vivo, Musca domestica; conditions: topical 1 μL acetone solution, adult house flies, strain Cooper
Description: Topical Treatment of House Fly Adults (M. domestica)
A culture of an insecticide-susceptible strain, Cooper, was established. Three-day-old adult house flies (body weight about […]) were anaesthetised with carbon dioxide. Using the PAX microapplicator, a volume of 1 μL of acetone solution of the test compounds was applied to the dorsal cuticle, holding the fly in padded forceps.
Groups of flies were placed into closed vials, kept at 30±1° C., for observation.
as §6, §7

[7] = Method F: immersion bioassay of brine shrimp larvae in brine; format: in vivo; conditions: Artemia salina (brine shrimp) larvae, in vivo, brine shrimp larvae immersed in brine, 24 hour mortalities
Description: as §1, §2, §3, §4, §5, §6, §7

CC1(C)O[C@H]2O[C@H]([C@H]3C=CC(=O)O3)[C@H](OCc3ccccc3)[C@H]2O1 [Compound 4, 3-O-benzyl-6,7-dideoxy-1,2-O-isopropylidene-α-D-gluco-oct-6-enefuranurono-8,5-lactone]
LC50 [1]: 358.92 µg/mL (≈ 1080 µM)
% Control of White Fly ([2]; concentration 2.5 μg/mL): 50%
insecticidal efficacy against adult white fly (in words) [2]: show efficacy as insecticides; also recorded: promising for activity against the white fly
LD50 [3]: 0.00012 μg/insect
activity against adult fruit flies (in words) [3]: high toxicity against adult fruit flies

CC1=C[C@H]([C@H]2O[C@@H]3OC(C)(C)O[C@@H]3[C@H]2OCc2ccccc2)OC1=O [Compound 1, 3-O-benzyl-6,7-dideoxy-1,2-O-isopropylidene-7-methyl-α-D-gluco-oct-6-enefuranurono-8,5-lactone]
LC50 [1]: 100.62 µg/mL (≈ 290 µM)
LD50 [3]: 0.00002 μg/insect
activity against adult fruit flies (in words) [3]: extremely active

(7R)-/(7S)-3,6,7-Trideoxy-1,2-O-isopropylidene-7-methyl-7-phenylselenyl-α-D-ribo-octofuranurono-8,5-lactone [Compound 7]
LC50 [1]: 261.04 µg/mL
LD50 [4]: 0.968 μg/insect
% Control of White Fly ([2]; concentration 4.8 μg/mL): 0%
LD50 [3]: 0.0002 μg/insect

CC1(C)O[C@H]2O[C@H]([C@H]3C=CC(=O)O3)[C@@H](OCc3ccccc3)[C@H]2O1 [Compound 3, 3-O-benzyl-6,7-dideoxy-1,2-O-isopropylidene-α-D-alo-oct-6-enefuranurono-8,5-lactone]
LC50 [1]: 144.71 µg/mL (≈ 435 µM)
% Control of White Fly ([2]; concentration 1.3 μg/mL): 0%
LD50 [3]: 5.02 × 10^−6 μg/insect
activity against adult fruit flies (in words) [3]: extremely active

methyl (7R)-/(7S)-2,3-anhydro-6,7-dideoxy-7-methyl-7-phenylselenyl-α-gulo-octofuranurono-8,5-lactone [Compound 6]
LC50 [1]: 125.48 µg/mL
% Control of White Fly ([2]; concentration 1.3 μg/mL): 0%
LD50 [3]: 0.00015 μg/insect

CO[C@H]1O[C@H]([C@@H]2CO2)[C@@H]2O[C@H]12 [Compound 9, Methyl 2,3:5,6-Dianhydro-β-L-gulofuranoside]
LC50 [1]: 671.50 µg/mL (≈ 4250 µM)
% Control of White Fly ([2]; concentration 2.5 μg/mL): 85%
insecticidal efficacy against adult white fly (in words) [2]: show efficacy as insecticides; also recorded: promising for activity against the white fly
LD50 [3]: 0.00003 μg/insect
activity against adult fruit flies (in words) [3]: extremely active; also recorded: high toxicity against adult fruit flies

CC1=C[C@H]([C@H]2O[C@@H]3OC(C)(C)O[C@@H]3[C@@H]2OCc2ccccc2)OC1=O [Compound 2, 3-O-benzyl-6,7-dideoxy-1,2-O-isopropylidene-7-methyl-α-D-alo-oct-6-enefuranurono-8,5-lactone]
LC50 [1]: 64.30 µg/mL (≈ 186 µM)
LD50 [5]: 0.00398 μg/insect
LD50 [3]: 2.27 × 10^−6 μg/insect
activity against adult fruit flies (in words) [3]: extremely active

CC1(C)OC2OC(C3CC(C)([Se]c4ccccc4)C(=O)O3)C(OCc3ccccc3)C2O1 [Compound 8, (7R)-/(7S)-3-O-Benzyl-6,7-dideoxy-1,2-O-isopropylidene-7-methyl-7-phenylselenyl-α-D-gluco-octofuranurono-8,5-lactone]
LD50 [6]: 0.644 μg/insect
LC50 [1]: 220.41 µg/mL (≈ 438 µM)
toxicity to fruit fly larvae compared with adult flies (in words) [4]: less toxic for larvae than for adult flies
LD50 [3]: 0.00037 μg/insect

O=[N+]([O-])NC1=NCCN1Cc1ccc(Cl)nc1 [Imidacloprid, imidacloprid, reference compound]
LC50 at 24 h [7]: 0.0312 µg/mL (≈ 0.122 µM)
LD50 [3]: 0.01253 μg/insect

CC(=O)OC[C@H]1OC(=O)C(Br)=C[C@@H]1OC(C)=O [Compound 5, 4,6-di-O-acetyl-2-bromo-2,3-dideoxy-D-erythro-hex-2-enone-1,5-lactone]
LD50 [6]: 1.065 μg/insect
LC50 [1]: 38.36 µg/mL (≈ 125 µM)
LD50 [4]: 4.75 μg/insect
toxicity to fruit fly larvae compared with adult flies (in words) [4]: less toxic for larvae than for adult flies
LD50 [3]: 0.00016 μg/insect
